In patent US20180244611A1, “Modulators of the Cystic Fibrosis Transmembrane Conductance Regulator Protein and Methods of Use” (AbbVie S.à.r.l., priority 2017, published 2018):

What was measured:
F508delCFTR [1] = target: T1, F508delCFTR (Homo sapiens, UniProt P13569, DEL508-508); assay: Cell Surface Expression-Horse Radish Peroxidase (CSE-HRP) assay, test compound with co-corrector; assay type: cell-based; settings: with 2 μM co-corrector; for Maximum % activity (with co-corrector): maximum at any tested concentration, normalized to positive control;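 for Maximum % activity (with co-corrector): percent of 2 µM positive control corrector over DMSO; co-corrector is that same compound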
T1 construct: expressed in transfected cells; host or cells: CFBE41o- human lung-derived epithelial cells (CFBE41o-F508delCFTR-HRP), doxycycline-inducible
T1 sequence (P13569 with tags, fused parts or gaps DEL508-508): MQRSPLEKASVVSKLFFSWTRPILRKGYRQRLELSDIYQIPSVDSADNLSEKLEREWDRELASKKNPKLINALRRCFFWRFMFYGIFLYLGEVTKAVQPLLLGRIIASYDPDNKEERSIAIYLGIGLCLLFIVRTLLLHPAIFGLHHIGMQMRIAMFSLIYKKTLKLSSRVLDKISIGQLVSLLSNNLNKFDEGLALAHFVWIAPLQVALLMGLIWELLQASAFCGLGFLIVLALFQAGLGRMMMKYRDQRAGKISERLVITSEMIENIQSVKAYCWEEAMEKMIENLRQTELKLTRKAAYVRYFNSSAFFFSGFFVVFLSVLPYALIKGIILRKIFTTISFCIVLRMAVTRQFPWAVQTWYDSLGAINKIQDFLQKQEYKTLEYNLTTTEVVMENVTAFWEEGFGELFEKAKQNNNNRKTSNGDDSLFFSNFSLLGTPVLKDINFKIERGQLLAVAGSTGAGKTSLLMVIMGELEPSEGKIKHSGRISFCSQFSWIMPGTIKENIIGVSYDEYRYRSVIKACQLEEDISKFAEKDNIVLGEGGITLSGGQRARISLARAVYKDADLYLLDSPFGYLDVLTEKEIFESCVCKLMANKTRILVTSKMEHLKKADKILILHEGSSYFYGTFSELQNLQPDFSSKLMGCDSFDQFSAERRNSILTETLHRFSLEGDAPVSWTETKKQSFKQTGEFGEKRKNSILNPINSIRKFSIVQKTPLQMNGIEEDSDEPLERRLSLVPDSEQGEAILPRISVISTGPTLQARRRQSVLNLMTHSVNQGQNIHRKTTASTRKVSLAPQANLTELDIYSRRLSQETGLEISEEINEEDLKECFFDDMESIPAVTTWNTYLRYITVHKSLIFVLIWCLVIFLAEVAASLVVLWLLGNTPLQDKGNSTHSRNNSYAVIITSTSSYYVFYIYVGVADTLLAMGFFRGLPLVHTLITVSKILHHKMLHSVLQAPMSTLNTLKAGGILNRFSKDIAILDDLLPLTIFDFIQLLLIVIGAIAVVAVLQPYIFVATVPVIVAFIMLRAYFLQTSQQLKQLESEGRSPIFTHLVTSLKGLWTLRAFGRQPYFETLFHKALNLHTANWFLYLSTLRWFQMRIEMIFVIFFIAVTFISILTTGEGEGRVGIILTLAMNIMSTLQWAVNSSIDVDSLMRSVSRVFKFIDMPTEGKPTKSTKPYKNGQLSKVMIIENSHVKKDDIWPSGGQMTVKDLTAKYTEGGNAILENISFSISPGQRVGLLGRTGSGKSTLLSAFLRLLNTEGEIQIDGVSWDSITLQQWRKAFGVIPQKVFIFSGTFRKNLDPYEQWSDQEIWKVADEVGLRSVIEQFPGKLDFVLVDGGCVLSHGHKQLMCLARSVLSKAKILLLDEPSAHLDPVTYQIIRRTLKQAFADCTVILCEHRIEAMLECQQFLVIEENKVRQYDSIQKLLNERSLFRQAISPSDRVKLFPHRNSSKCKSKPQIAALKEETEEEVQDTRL
Summary of the method: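 CFBE41o- cells expressing F508delCFTR with HRP in the fourth exofacial loop, induced with 0.5 μg/mL doxycycline for 72 h, then treated 18-24 h at 33° C. with compound (8 points, top 20 μM, 3-fold) plus 2 μM co-corrector. Surface HRP read by luminol luminescence; activity normalised to positive control, EC50 from variable-slope sigmoidal fit.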

F508delCFTR [2] = target: T1, F508delCFTR; assay: Cell Surface Expression-Horse Radish Peroxidase (CSE-HRP) assay, test compound without co-corrector; assay type: cell-based; settings: for Emax: maximum at any tested concentration, normalized to positive control, without co-corrector; for EC50: test compound without co-corrector;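 for Emax: percent of on-plate 2 µM positive control corrector response over DMSO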
Summary of the method: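 CFBE41o- cells expressing F508delCFTR with HRP in the fourth exofacial loop, induced with 0.5 μg/mL doxycycline for 72 h at 37° C, then exposed to compound alone for 18-24 h at 33° C, 8-point 3-fold series from 20 μM. Surface HRP read by luminol luminescence, normalized to positive corrector control versus DMSO; EC50 from variable-slope sigmoidal fit of three replicate plates.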

Maximum % activity (with co-corrector) (F508delCFTR [1])	EC50 (F508delCFTR [1]) [µM]	Emax (F508delCFTR [2]) [%]	EC50 (F508delCFTR [2]) [µM]	Structure (SMILES)
+++ (≥350)	< 3	≥ 150	< 3	COc1ccc(CC(C)C)c2c1CCCC2C(=O)NS(=O)(=O)c1cccc2ccccc12 (centres unmarked) [Example I-67, 5-methoxy-8-(2-methylpropyl)-N-(naphthalene-1-sulfonyl)-1,2,3,4-tetrahydronaphthalene-1-carboxamide]
+++ (≥350)	< 3	≥ 150	< 3	COc1ccc(Cl)c2c1C(C(=O)NS(=O)(=O)c1cccc3ccccc13)CCC2 (centres unmarked) [Example I-70, 5-chloro-8-methoxy-N-(naphthalene-1-sulfonyl)-1,2,3,4-tetrahydronaphthalene-1-carboxamide]
++ (≥150 and <350)	3 to 10	50 to 150	3 to 10	COc1ccc(Cl)c2c1[C@@H](C(=O)NS(=O)(=O)c1cccc3ccccc13)CC2 [Example I-71, (1S)-4-chloro-7-methoxy-N-(naphthalene-1-sulfonyl)-2,3-dihydro-1H-indene-1-carboxamide]
+++ (≥350)	< 3	≥ 150	3 to 10	COc1ccc(Cl)c2c1[C@H](C(=O)NS(=O)(=O)c1cccc3ccccc13)CC2 [Example I-72, (1R)-4-chloro-7-methoxy-N-(naphthalene-1-sulfonyl)-2,3-dihydro-1H-indene-1-carboxamide]
+++ (≥350)	< 3	≥ 150	3 to 10	COc1ccc(OC)c2c1CCCC2C(=O)NS(=O)(=O)c1cccc2ccccc12 (centres unmarked) [Example I-73, 5,8-dimethoxy-N-(naphthalene-1-sulfonyl)-1,2,3,4-tetrahydronaphthalene-1-carboxamide]
+++ (≥350)	< 3	≥ 150	< 3	COc1ccc(C)c2c1C(C(=O)NS(=O)(=O)c1cccc3ccccc13)CC2 (centres unmarked) [Example I-75, 7-methoxy-4-methyl-N-(naphthalene-1-sulfonyl)-2,3-dihydro-1H-indene-1-carboxamide]
+++ (≥350)	< 3	≥ 150	3 to 10	COc1ccc(C2CCC2)c2c1C(C(=O)NS(=O)(=O)c1cccc3ccccc13)CC2 (centres unmarked) [Example I-76, 4-cyclobutyl-7-methoxy-N-(naphthalene-1-sulfonyl)-2,3-dihydro-1H-indene-1-carboxamide]
+++ (≥350)	< 3	≥ 150	3 to 10	COc1ccc(Br)c2c1C(C(=O)NS(=O)(=O)c1cccc3ccccc13)C2 (centres unmarked) [Example I-79, 2-bromo-5-methoxy-N-(naphthalene-1-sulfonyl)bicyclo[4.2.0]octa-1,3,5-triene-7-carboxamide]
+++ (≥350)	3 to 10	50 to 150	3 to 10	COc1ccc(C2CCC2)c2c1[C@@H](C(=O)NS(=O)(=O)c1cccc3ccccc13)CC2 [Example I-80, (1S)-4-cyclobutyl-7-methoxy-N-(naphthalene-1-sulfonyl)-2,3-dihydro-1H-indene-1-carboxamide]
+++ (≥350)	< 3	≥ 150	< 3	COc1ccc(C2CCC2)c2c1[C@H](C(=O)NS(=O)(=O)c1cccc3ccccc13)CC2 [Example I-81, (1R)-4-cyclobutyl-7-methoxy-N-(naphthalene-1-sulfonyl)-2,3-dihydro-1H-indene-1-carboxamide]
+++ (≥350)	< 3	≥ 150	3 to 10	COc1ccc(Br)c2c1CC[C@H]2C(=O)NS(=O)(=O)c1cccc2ccccc12 [Example I-84, (1R)-7-bromo-4-methoxy-N-(naphthalene-1-sulfonyl)-2,3-dihydro-1H-indene-1-carboxamide]
+++ (≥350)	3 to 10	50 to 150	3 to 10	COc1ccc(Br)c2c1CC[C@@H]2C(=O)NS(=O)(=O)c1cccc2ccccc12 [Example I-85, (1S)-7-bromo-4-methoxy-N-(naphthalene-1-sulfonyl)-2,3-dihydro-1H-indene-1-carboxamide]
++ (≥150 and <350)	3 to 10	50 to 150	3 to 10	COc1ccc(OC)c2c1CC[C@@H]2C(=O)NS(=O)(=O)c1cccc2ccccc12 [Example I-89, (1S)-4,7-dimethoxy-N-(naphthalene-1-sulfonyl)-2,3-dihydro-1H-indene-1-carboxamide]

The remaining lines, values behind:

Structure (SMILES)	Maximum % activity (with co-corrector) (F508delCFTR [1])	EC50 (F508delCFTR [1]) [µM]	Emax (F508delCFTR [2]) [%]	EC50 (F508delCFTR [2]) [µM]
COc1ccc(C2CCC2)c2c1CCC[C@@H]2C(=O)NS(=O)(=O)c1cccc2ccccc12 [Example I-60, (1S)-8-cyclobutyl-5-methoxy-N-(naphthalene-1-sulfonyl)-1,2,3,4-tetrahydronaphthalene-1-carboxamide]	+++ (≥350)	< 3	≥ 150	< 3
COc1ccc(C2CCC2)c2c1CCC[C@H]2C(=O)NS(=O)(=O)c1cccc2ccccc12 [Example I-61, (1R)-8-cyclobutyl-5-methoxy-N-(naphthalene-1-sulfonyl)-1,2,3,4-tetrahydronaphthalene-1-carboxamide]	+++ (≥350)	< 3	≥ 150	< 3
CC[C@]1(C(=O)NS(=O)(=O)c2cccc3ccccc23)CCCc2cccc(Cl)c21 [Example I-64, (1S)-8-chloro-1-ethyl-N-(naphthalene-1-sulfonyl)-1,2,3,4-tetrahydronaphthalene-1-carboxamide]	+++ (≥350)	< 3	≥ 150	< 3
CC[C@@]1(C(=O)NS(=O)(=O)c2cccc3ccccc23)CCCc2cccc(Cl)c21 [Example I-65, (1R)-8-chloro-1-ethyl-N-(naphthalene-1-sulfonyl)-1,2,3,4-tetrahydronaphthalene-1-carboxamide]	+++ (≥350)	< 3	≥ 150	< 3
CCC1(C(=O)NS(=O)(=O)c2cccc3ccn(C)c23)CCc2c(Cl)cccc21 (centres unmarked) [Example I-66, 4-chloro-1-ethyl-N-(1-methyl-1H-indole-7-sulfonyl)-2,3-dihydro-1H-indene-1-carboxamide]	+++ (≥350)	< 3	≥ 150	< 3
COc1ccc(CC(C)C)c2c1C(C(=O)NS(=O)(=O)c1cccc3ccccc13)CCC2 (centres unmarked) [Example I-68, 8-methoxy-5-(2-methylpropyl)-N-(naphthalene-1-sulfonyl)-1,2,3,4-tetrahydronaphthalene-1-carboxamide]	+++ (≥350)	< 3	≥ 150	< 3
COc1ccc(C2CCC2)c2c1C(C(=O)NS(=O)(=O)c1cccc3ccccc13)CCC2 (centres unmarked) [Example I-69, 5-cyclobutyl-8-methoxy-N-(naphthalene-1-sulfonyl)-1,2,3,4-tetrahydronaphthalene-1-carboxamide]	+++ (≥350)	< 3	≥ 150	< 3
CCC1(C(=O)NS(=O)(=O)c2cccc3c2ccn3C)CCc2c(Cl)cccc21 (centres unmarked) [Example I-74, 4-chloro-1-ethyl-N-(1-methyl-1H-indole-4-sulfonyl)-2,3-dihydro-1H-indene-1-carboxamide]	+++ (≥350)	< 3	≥ 150	3 to 10
COc1ccc(C2CCC2)c2c1C(C(=O)NS(=O)(=O)c1cccc3ncccc13)CC2 (centres unmarked) [Example I-77, 4-cyclobutyl-7-methoxy-N-(quinoline-5-sulfonyl)-2,3-dihydro-1H-indene-1-carboxamide]	+++ (≥350)	< 3	≥ 150	3 to 10
COc1ccc(Br)c2c1C(C(=O)NS(=O)(=O)c1cccc3nccn13)CC2 (centres unmarked) [Example I-78, 4-bromo-N-(imidazo[1,2-a]pyridine-5-sulfonyl)-7-methoxy-2,3-dihydro-1H-indene-1-carboxamide]	+++ (≥350)	< 3	≥ 150	3 to 10
O=C(NS(=O)(=O)c1cccc2ccccc12)C1CCCc2cccc(C3CCC3)c21 (centres unmarked) [Example I-82, 8-cyclobutyl-N-(naphthalene-1-sulfonyl)-1,2,3,4-tetrahydronaphthalene-1-carboxamide]	+++ (≥350)	< 3	≥ 150	< 3
CC1(C(=O)NS(=O)(=O)c2cccc3ccccc23)CCc2cccc(C3CCC3)c21 (centres unmarked) [Example I-83, 7-cyclobutyl-1-methyl-N-(naphthalene-1-sulfonyl)-2,3-dihydro-1H-indene-1-carboxamide]	+++ (≥350)	< 3	≥ 150	< 3
COc1ccc(C2CC2)c2c1C(C(=O)NS(=O)(=O)c1cccc3ccccc13)CCC2 (centres unmarked) [Example I-88, 5-cyclopropyl-8-methoxy-N-(naphthalene-1-sulfonyl)-1,2,3,4-tetrahydronaphthalene-1-carboxamide]	+++ (≥350)	< 3	≥ 150	< 3
